One assay addresses T1, JAK2 (Homo sapiens, UniProt O60674).
T1 construct: Recombinant human JAK2 catalytic domain (amino acids 808-1132; catalog number PV4210) was purchased from Invitrogen; purchased Invitrogen PV4210
As to the kind of experiment: JAK2 Ki determination assay (kinase tracer binding). As to conditions: kinase tracer 236 binding; read-out: Ki against JAK2. How it is done:
JAK2 (Invitrogen, PV4210) was used at a final concentration of 5 nM. The binding experiment was performed in 50 mM Hepes pH 7.5, 0.01% Brij-35, 10 mM MgCl2, 1 mM EGTA using 25 nM kinase tracer 236 (Invitrogen, PV5592) and 2 nM Eu-anti-GST (Invitrogen, PV5594) with varying compound concentrations. Detection of tracer was performed according to the manufacturer's procedure.

The subject of the next assay is CTLL2 cells. As to the kind of experiment: CTLL2 viability assay (IL2-dependent). The format is cell-based. As to conditions: ATP content. The method, then: The protocol describes the methods to analyse the activity of compounds on the ability to sustain the IL2-dependent viability of CTLL2
Negative control is a DMSO dilution, positive control at 10 μM. Final DMSO concentration is 0.1%.

Another assay has as its system rat CIA model. As to the kind of experiment: Rat collagen induced arthritis (CIA) model. The format is in vivo. The following applies: p.o., therapeutic dosing day 16 to day 30. The method, then: Completed Freund's adjuvant (CFA) and incomplete Freund's adjuvant (IFA) were purchased from Difco. Bovine collagen type II (CII), lipopolysaccharide (LPS), and Enbrel was obtained from Chondrex (Isle d'Abeau, France); Sigma (P4252, L'Isle d'Abeau, France), Whyett (25 mg injectable syringe, France) Acros Organics (Palo Alto, Calif.), respectively. All other reagents used were of reagent grade and all solvents were of analytical grade.
Dark Agouti rats (male, 7-8 weeks old) were obtained from Harlan Laboratories (Maison-Alfort, France). Rats were kept on a 12 h light/dark cycle (0700-1900). Temperature was maintained at 22° C., and food and water were provided ad libitum.
One day before the experiment, CII solution (2 mg/mL) was prepared with 0.05 M acetic acid and stored at 4° C. Just before the immunization, equal volumes of adjuvant (IFA) and CII were mixed by a homogenizer in a pre-cooled glass bottle in an ice water bath. Extra adjuvant and prolonged homogenization may be required if an emulsion is not formed. […]
Arthritis is scored according to the method of Khachigian 2006, Lin et al 2007 and Nishida et al. 2004). […]
The area under the curve (AUC) from day 1 to day 14 was calculated for each individual rat. The AUC of each animal was divided by the average AUC obtained for the vehicle in the study from which the data on that animal was obtained and multiplied by 100 (i.e. the AUC was expressed as a percentage of the average vehicle AUC per study).
The clinical score difference for each animal was divided by the average clinical score difference obtained for the vehicle in the study from which the data on that animal was obtained and multiplied by 100 (i.e. the difference was expressed as a percentage of the average clinical score difference for the vehicle per study).
Clinically, body weight loss is associated with arthritis (Shelton et al., 2005; Rall, 2004; Walsmith et al., 2004). […] The change in body weight (%) after onset of arthritis was calculated as follows: […]

T1 sequence (O60674 808-1132): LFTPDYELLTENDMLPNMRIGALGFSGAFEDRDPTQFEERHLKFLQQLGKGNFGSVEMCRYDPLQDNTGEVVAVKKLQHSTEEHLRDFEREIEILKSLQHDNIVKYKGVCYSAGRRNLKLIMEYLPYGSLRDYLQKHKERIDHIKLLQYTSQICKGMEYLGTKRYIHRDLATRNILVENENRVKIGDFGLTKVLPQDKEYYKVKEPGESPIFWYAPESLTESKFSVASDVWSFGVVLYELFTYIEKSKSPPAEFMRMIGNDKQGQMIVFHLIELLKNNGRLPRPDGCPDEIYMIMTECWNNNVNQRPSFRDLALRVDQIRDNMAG

One may read the Ki as a measure of affinity in units of concentration, obtained from inhibition or displacement. As a reminder, the IC50 is the concentration needed to halve the response being measured. For the compound `CCc1cc(C2=CCN(C(=O)CC#N)CC2)ccc1N(C)c1cc2c(cn1)ncn2C` [Compound 1], the Ki at JAK2 was 25.1 nM. For the same compound, the IC50 in the assay with CTLL2 cells (24 h, listed as compound of the invention) worked out at 2440 nM; with CTLL2 cells (Mus musculus, CTLL-2, 24 h) it was 1810 nM. The “efficacy in rat CIA model” value in the assay on rat CIA model (1 mg/kg), with rat CIA model (3 mg/kg) and with rat CIA model (10 mg/kg) was “statistically significant efficacy” in each case.

These data come from patent US20130217722A1, “NOVEL COMPOUND USEFUL FOR THE TREATMENT OF DEGENERATIVE AND INFLAMMATORY DISEASES” (priority 2012, published 2013).
